Patent US20210154280A1, “NEO-EPITOPE VACCINES AND METHODS OF TREATING CANCER” (Epivax Oncology, Inc., priority 2019, published 2021)

Columns and labels:
[1] = test system: CT26 murine colon tumor cells; assay: Anti-tumor activity with or without poly-ICLC, CT26 murine tumor model (Example 13); assay type: in vivo, BALB/c mice; details: day 25 post-tumor implantation; relative to PBS or poly-ICLC alone; sc twice per week for three weeks
Description: The goal of this experiment was to determine the requirement for the inclusion of the adjuvant poly-ICLC in a peptide vaccine containing ANCER™ selected neoantigens. For this experiment, female BALB/c mice were implanted subcutaneously with 3×10^5 CT26 murine colon tumor cells. Tumor growth was monitored by caliper measurement and mice were sacrificed 45 days after tumor implantation or when tumor volumes reached 2000 mm^3, whichever came first.
Four vaccine groups were tested (n=10 mice/group): • Group 1=PBS only • Group 2=PBS with 50 μg poly-ICLC • Group 3=20 ANCER™ selected (uncapped) peptides with 50 μg poly-ICLC • Group 4=20 ANCER™ selected (uncapped) peptides only
Peptide vaccines were comprised of 20 different ANCER™ selected peptides at a concentration of 5 μg/peptide for a total dose of 100 μg peptide per immunization. Mice were immunized subcutaneously in the opposite flank from tumor implantation twice per week for three weeks, starting at day 4 post-tumor implantation.

CT26 tumor cells = assay: CT26 tumor growth and survival after vaccination (Example 1); details: N=10 per group
Description: Mice were separated into three groups: 1) PBS control; 2) poly-ICLC (vehicle); 3) ANCER™-selected CT26 Neoantigen Peptides+poly-ICLC. • Group 1: PBS, sc injections at days 5, 8, 12, 15, 19, 22, and 26. • Group 2: poly-ICLC, 50 μg, sc injections at days 5, 8, 12, 15, 19, 22, and 26. • Group 3: 5 μg/ANCER™-selected CT26 Neoantigen Peptide (100 μg total ANCER™-selected CT26 Neoantigen Peptides)+50 μg poly-ICLC, sc injections at days 5, 8, 12, 15, 19, 22, and 26.
All mice (N=10 mice per group) were injected 3*10^5 CT26 tumor cells in 0% Matrigel at day 0. Mice were sacrificed once the tumor volume reached 2,000 mm^3 or at day 45, whichever came first.

poly-ICLC
control of tumor growth [1]: no difference in tumor growth kinetics
mice that survived the 45 days of the experiment (in words) (CT26 tumor cells): None
mice reaching a tumor volume of at least 2,000 mm^3 (endpoint) (CT26 tumor cells; by day 28): 60%
